Test results from publication PMC6200136 (Journal of medicinal chemistry, 2017).

Assays:
phospho-CDK1 (Tyr15) = experiment: Immunoblotting of phospho-CDK1; type: cell-based, human; details: synchronized HEK293T and MDA-MB-231 cells, 6 h drug treatment
[1] = test system: phosphorylated TCTP (PLK1 substrate); experiment: Immunoblotting of phospho-TCTP; type: cell-based, human; details: synchronized HEK293T and MDA-MB-231 cells, 6 h drug treatment
[2] = test system: HEK293T, MM1.S, and MDA-MB-231 cells; experiment: Cell viability across HEK293T, MM1.S and MDA-MB-231; type: cell-based; details: Homo sapiens, 72 h, read-out: cell viability IC50 values (range over cell lines)
Myt1-KD = molecular target: T1, Myt1-KD (Homo sapiens, UniProt Q99640); experiment: DSF thermal shift, Myt1 kinase domain; type: binding; details: DSF screen, 100 μM
T1 sequence (Q99640 75-361): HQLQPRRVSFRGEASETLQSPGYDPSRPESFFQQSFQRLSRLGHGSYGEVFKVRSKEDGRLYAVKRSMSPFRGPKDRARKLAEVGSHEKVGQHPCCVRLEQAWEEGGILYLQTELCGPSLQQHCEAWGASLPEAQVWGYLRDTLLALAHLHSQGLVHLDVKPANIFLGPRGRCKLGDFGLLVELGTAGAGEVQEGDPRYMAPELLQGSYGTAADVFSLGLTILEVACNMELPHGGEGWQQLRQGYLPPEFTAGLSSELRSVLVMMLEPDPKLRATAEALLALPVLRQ

| Structure (SMILES) | effect on CDK1 phosphorylation (phospho-CDK1 (Tyr15)) | reduction of phosphorylation levels, times less effective than BI-2536 and 1 [1] | IC50 [2] [nM] | binding potential for Myt1 (in words) (Myt1-KD) |
| --- | --- | --- | --- | --- |
| CC[C@@H]1C(=O)N(C)c2cnc(Nc3ccc(C(=O)NC4CCN(C)CC4)cc3OC)nc2N1C1CCCC1 [BI-2536] | no effect | – | – | – |
| C=CCn1c(=O)c2cnc(Nc3ccc(N4CCN(C)CC4)cc3)nc2n1-c1cccc(C(C)(C)O)n1 [MK-1775] | reducing the levels of phosphorylated CDK1 | about 10 times | 290 to 310 | – |
| C[C@@H](Oc1cc(-n2cnc3ccc(CN4CCN(C)CC4)cc32)sc1C(N)=O)c1ccccc1C(F)(F)F [compound 1, (R)-5-(6-((4-methylpiperazin-1-yl)methyl)-1H-benzo[d]imidazol-1-yl)-3-(1-(2-(trifluoromethyl)phenyl)-ethoxy)thiophene-2-carboxamide] | no effect | – | – | – |
| CC(=O)NCC(=O)N1[C@@H]2CC[C@H]1c1ccc(Nc3ncc(C(F)(F)F)c(NC4CCC4)n3)cc12 [compound 2] | – | – | – | no binding potential |
